Laboratory results as given in publication PMC6522510 (Nature Communications, 2019).
Where two headings read alike, the source gives them in different places.

Tests used:
[1] = tested on: MV4-11; assay: Secondary dose-response HTS, Cell Titer Glo; format: cell-based, human; details: secondary high-throughput screen, MV4-11
[2] = tested on: ML2; assay: Secondary dose-response HTS, Cell Titer Glo; format: cell-based, human; details: ML-2; for EC50: Homo sapiens
[3] = tested on: CMS; assay: Secondary dose-response HTS, Cell Titer Glo; format: cell-based, human; details: for EC50: Homo sapiens, HTS
[4] = tested on: CHRF288-11; assay: Secondary dose-response HTS, Cell Titer Glo; format: cell-based, human; details: for EC50: Homo sapiens
[5] = tested on: MOLM-13; assay: Secondary dose-response HTS, Cell Titer Glo; format: cell-based, human; details: MOLM-13; for EC50: Homo sapiens
[6] = tested on: M07e; assay: Secondary dose-response HTS, Cell Titer Glo; format: cell-based, human; details: for EC50: Homo sapiens, M-07e
[7] = tested on: U937; assay: Secondary dose-response HTS, Cell Titer Glo; format: cell-based, human; details: for EC50: Homo sapiens, U-937
[8] = tested on: CMK; assay: Secondary dose-response HTS, Cell Titer Glo; format: cell-based, human; details: CMK; for EC50: Homo sapiens
[9] = tested on: MV4-11; assay: cells; parameters: species or system AML cell lines (8); Secondary HTS, 10-point dose-response in triplicate, Cell Titer Glo viability, four-parameter fit EC50; details: Homo sapiens, MV4-11, 72 h, read-out: MV4-11
[10] = secondary high-throughput screen
[11] = secondary high-throughput screen, CMS
[12] = secondary high-throughput screen, CHRF288-11
[13] = secondary high-throughput screen, M07e
[14] = secondary high-throughput screen, U937
[15] = secondary high-throughput screen, […]
[16] = read-out: average effective concentration, CMK
[17] = secondary high-throughput screen, read-out: average effective concentration, ML-2
[18] = read-out: average effective concentration, CMS
[19] = HTS, secondary high-throughput screen, CHRF288-11, read-out: average effective concentration, CHRF288-11
[20] = secondary high-throughput screen, read-out: average effective concentration, MOLM-13
[21] = secondary high-throughput screen, M07e, read-out: average effective concentration, M07e
[22] = secondary high-throughput screen, U937, read-out: average effective concentration, U937
[23] = secondary high-throughput screen, CMS, read-out: average effective concentration, CMS
[24] = secondary high-throughput screen, read-out: average effective concentration, CMK

Row | Molecule | average effective concentration, MV4-11 [1] | average effective concentration, ML-2 [2, 10] | average effective concentration, CMS [3, 11] | average effective concentration, CHRF288-11 [4, 12] | average effective concentration, MOLM-13 [5, 10] | average effective concentration, M07e [6, 13] | average effective concentration, U937 [7, 14] | average effective concentration, CMK [8, 10] | EC50 [9] [nM] | EC50 [2, 17] [nM] | EC50 [4, 19] [nM] | EC50 [5, 20] [nM] | EC50 [6, 21] [nM] | EC50 [7, 22] [nM] | other results
1 | N[C@@H]1C[C@H]1c1ccccc1 (racemic) [TRANYLCYPROMINE] | Inactive | Inactive | Inactive | Inactive | Inactive | Inactive | Inactive |  |  |  |  |  |  |  | 
2 | [NH4+].[NH4+].[SH-].[SH-].[S]=[Mo]=[S] [AMMONIUM TETRATHIOMOLYBDATE] | Inactive | Inactive | Inactive | Inactive | Inactive | Inactive | Inactive |  |  |  |  |  |  |  | 
3 | O=[As]O[As]=O (stereo not drawn) [ARSENIC TRIOXIDE] | Inactive | Inactive | Inactive | Inactive | Inactive |  | Inactive |  |  |  |  |  |  |  | average effective concentration, M07e [6, 15]: Inactive
4 | N[C@@H]1CCCN(c2c(/C=C3\SC(=O)NC3=O)cccc2-c2ccccc2)C1 [AZD1208] | Inactive | Inactive | Inactive |  | Inactive | Inactive | Inactive | Inactive |  |  |  |  |  |  | 
5 | O=C(/C=C/c1cccc(S(=O)(=O)Nc2ccccc2)c1)NO [BELINOSTAT] |  |  |  |  |  |  |  |  | > 10000 | 350 | 240 | 270 | 190 | 170 | EC50 [8, 16]: 14 nM; EC50 [3, 18]: 250 nM
6 | COc1cc2nc(N3CCCN(C)CC3)nc(NC3CCN(Cc4ccccc4)CC3)c2cc1OC [BIX 01294] |  |  |  |  |  |  |  |  |  | 3600 | 4400 | 2500 | > 10000 | 2000 | EC50 ([1]; Homo sapiens, read-out: average effective concentration, MV4-11): 3000 nM; EC50 [3, 23]: > 10000 nM
7 | C#Cc1cccc(Nc2ncnc3cc(OC)c(OCCCCCCC(=O)NO)cc23)c1 [CUDC-101] |  |  |  |  |  |  |  |  | > 10000 | 83 | 600 | 5600 | 190 | 140 | EC50 [8, 16]: 73 nM; EC50 [3, 18]: 780 nM
8 | COc1ccc(-c2nc(N3CCOCC3)c3sc(CN(C)c4ncc(C(=O)NO)cn4)cc3n2)cn1 [CUDC-907, reference compound] |  |  |  |  |  |  |  |  |  | 1.7 | 0.89 | 0.447 | 0.7 |  | EC50 ([8]; 72 h, read-out: EC50 CMK): 2 nM; EC50 [8, 16]: 1.9 nM; EC50 ([2]; secondary HTS, 72 h, average of triplicate, read-out: EC50 ML2): 2 nM; EC50 ([3]; 72 h, read-out: EC50 CMS): 1 nM; EC50 ([4]; secondary HTS, 72 h, average of triplicate, read-out: EC50 CHRF288-11): 1 nM; EC50 ([5]; secondary HTS, 72 h, average of triplicate, read-out: EC50 MOLM-13): 0.4 nM; EC50 ([6]; secondary HTS, 72 h, average of triplicate, read-out: EC50 M07e): 1 nM; EC50 ([7]; secondary HTS, 72 h, average of triplicate, read-out: EC50 U937): 4 nM
9 | N#CCNC(=O)c1ccc(-c2ccnc(Nc3ccc(N4CCOCC4)cc3)n2)cc1 [CYT-387] |  |  |  |  |  |  |  |  | > 10000 | > 10000 | 3800 | 1200 | 270 | 7600 | EC50 [8, 16]: 1800 nM; EC50 [3, 18]: 340 nM
10 | CSCC[C@@H](NC(=O)c1ccc(CNCc2cnc[nH]2)cc1-c1ccccc1C)C(=O)OCc1ccccc1 [FTI-2628] | Inactive | Inactive | Inactive | Inactive | Inactive | Inactive |  | Inactive |  |  |  |  |  |  | 
11 | CSCC[C@H](NC(=O)c1ccc(NC(=O)[C@@H](N)CS)cc1)C(=O)O [H-CYS-4-ABZ-MET-OH] | Inactive | Inactive | Inactive | Inactive | Inactive | Inactive |  | Inactive |  |  |  |  |  |  | 
12 | CC(N[C@H]1C[C@@H]1c1ccccc1)c1ccc2c(c1)OCCO2 (stereo partly drawn) [LSD1-C76] |  | Inactive | Inactive | Inactive | Inactive | Inactive | Inactive | Inactive |  |  |  |  |  |  | 
13 | C1=C/COCc2cc(ccc2OCCN2CCCC2)Nc2nccc(n2)-c2cccc(c2)COC/1 [PACRITINIB] |  |  |  |  |  |  |  |  | > 10000 | 130 | 2400 | 310 | 6700 | 280 | EC50 [8, 16]: 5000 nM; EC50 [3, 18]: 2000 nM
14 | CN(C)Cc1ccc(S(=O)(=O)n2ccc(/C=C/C(=O)NO)c2)cc1 [RESMINOSTAT] |  |  |  |  |  |  |  |  | > 10000 | 5000 | 4700 | 2000 | 1100 | 3500 | EC50 [8, 24]: 1700 nM; EC50 [3, 23]: 3100 nM
15 | Nc1cc(F)ccc1NC(=O)/C=C/c1cnn(C/C=C/c2ccccc2)c1 [RGFP966] |  |  |  |  |  |  |  |  | > 10000 | > 10000 | 7300 | > 10000 |  | > 10000 | EC50 [8, 24]: 6000 nM; EC50 [3, 23]: 9300 nM; EC50 ([6]; secondary high-throughput screen, […], read-out: average effective concentration, M07e): 10000 nM
16 | Fc1ccc(CNc2ncnc3ccc(F)cc23)cc1 [SPAUTIN-1] | Inactive | Inactive | Inactive | Inactive | Inactive |  |  | Inactive |  |  |  |  |  |  | average effective concentration, M07e [6, 15]: Inactive
17 | CC(=O)Nc1ccc(C(=O)Nc2ccccc2N)cc1 [TACEDINALINE] |  |  |  |  |  |  |  |  | > 10000 | > 10000 | > 10000 | 2200 | 4100 | > 10000 | EC50 [8, 24]: 6800 nM; EC50 [3, 23]: 9000 nM
18 | SCH 51344 |  | Inactive | Inactive | Inactive | Inactive | Inactive | Inactive | Inactive |  |  |  |  |  |  | 
